Data reported in ChEMBL document CHEMBL4840358, “Discovery of Modified Amidate (ProTide) Prodrugs of Tenofovir with Enhanced Antiviral Properties” (J Med Chem, 2021).
In brackets after ≈: the same amount, converted by molar mass. Structures can show the parent of a compound that is named as a salt.

Legend:
[1] = Selectivity index, ratio of CC50 for human MT-4 cells to EC50 for HIV-1 infected in MT-4 cells; assay type: toxicity, cell-based; settings: read-out: Ratio CC50/EC50
[2] = test system: Human immunodeficiency virus 1; test: Antiviral activity against HIV-1; assay type: functional, organism-based
[3] = test system: Human immunodeficiency virus 1; test: Antiviral activity against HIV-1 infected in MT4 cells assessed as reduction in virus-induced cytopathic effect preincubated for 1 hr followed by viral infection and measured after 5 days by XTT assay; assay type: functional, organism-based; settings: Human immunodeficiency virus 1, MT4
[4] = Cytotoxicity against in human MT4 cells after 5 days by XTT assay; assay type: cell-based; settings: time 5 day
[5] = Solubility of compound in water at 25 uM after 24 hrs by HPLC analysis; assay type: physicochemical
[6] = Chemical stability of compound in pH 10 NaOH-glycin buffer at 25 uM after 24 hrs by HPLC analysis; assay type: physicochemical; settings: pH 10, 24 h
[7] = Chemical stability of compound in pH 1.5 NaCl-HCl buffer at 25 uM after 24 hrs by HPLC analysis; assay type: physicochemical; settings: pH 1.5, 24 h
[8] = Chemical stability of compound in pH 4.5 citrate buffer at 25 uM after 24 hrs by HPLC analysis; assay type: physicochemical; settings: pH 4.5, 24 h
[9] = Stability of compound in pooled human plasma assessed as half life at 5 uM measured for 120 to 240 mins by ECHO-MS analysis; assay type: ADME, cell-free; settings: time 120-240 min
[10] = Stability of compound in pooled human plasma assessed as compound remaining at 5 uM measured for 120 to 240 mins by ECHO-MS analysis; assay type: ADME, cell-free; settings: time 120-240 min, read-out: Stability
[11] = Stability of compound in pooled human hepatic microsomes assessed as compound remaining at 5 uM measured upto 30 mins in presence of NADPH by ECHO-MS analysis; assay type: ADME, Microsome; settings: pooled liver microsomes, read-out: Stability
[12] = Drug metabolism in human liver microsomes assessed as formation of metabolite 1; assay type: ADME, Microsome
[13] = Drug uptake in human CCRF-CEM cells assessed as intracellular intact prodrug level at 50 uM after 45 mins by ECHO-MS analysis; assay type: ADME, cell-based; settings: 0.75 h
[14] = Drug uptake in human CCRF-CEM cells assessed as released tenofovir level at 50 uM after 45 mins by ECHO-MS analysis; assay type: ADME, cell-based; settings: 0.75 h
[15] = target: T1, Lysosomal protective protein (Homo sapiens) (UniProt P10619); test: Substrate activity at cathepsin A (unknown origin) at 30 uM after 30 mins
T1 sequence (whole entry): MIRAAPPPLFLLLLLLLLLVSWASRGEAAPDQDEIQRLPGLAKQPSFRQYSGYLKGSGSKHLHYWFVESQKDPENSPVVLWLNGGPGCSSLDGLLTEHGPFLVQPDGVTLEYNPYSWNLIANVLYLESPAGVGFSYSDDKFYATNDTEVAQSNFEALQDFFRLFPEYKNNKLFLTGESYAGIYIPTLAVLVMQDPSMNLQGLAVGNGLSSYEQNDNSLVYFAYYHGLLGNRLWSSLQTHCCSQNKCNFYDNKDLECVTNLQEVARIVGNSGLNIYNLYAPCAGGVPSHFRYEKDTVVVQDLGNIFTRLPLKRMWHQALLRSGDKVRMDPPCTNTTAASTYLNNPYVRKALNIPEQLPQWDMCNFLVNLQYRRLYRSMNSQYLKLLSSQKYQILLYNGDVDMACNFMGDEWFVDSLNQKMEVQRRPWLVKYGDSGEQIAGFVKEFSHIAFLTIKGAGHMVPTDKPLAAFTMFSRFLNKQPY

[16] = test system: Hepatitis B virus; test: Antiviral activity against HBV infected in human HepG2-hNTCP cells assessed as reduction in HBV DNA incubated for day 1 followed by compound washout and fresh compound addition on following day and day 3, 6 and 10 measured on day 14 post infection by qPCR analysis; assay type: functional, organism-based
[17] = Cytotoxicity against human HepG2-hNTCP cells incubated for 3 days by XTT assay; assay type: cell-based; settings: time 3 day
[18] = Drug metabolism assessed as M1 metabolite formation; assay type: ADME
[19] = Drug metabolism assessed as M5 metabolite formation; assay type: ADME
[20] = Drug metabolism assessed as M9 metabolite formation; assay type: ADME
[21] = Drug metabolism assessed as M11 metabolite formation; assay type: ADME
[22] = Drug metabolism assessed as M12 metabolite formation; assay type: ADME

Compound	selectivity ratio [1]	EC50 [2] [nM]	EC50 [3] [nM]	CC50 at 120 h [4] [nM]	solubility at 24 h, 25 µM [5] [µM]	half-life at 5 µM [9] [h]	remaining at 5 µM [10] [%]	remaining at 0.5 h, 5 µM [11] [%]	Drug uptake [13] [pmol]	Drug uptake [14] [pmol]	Activity [15] [pmol/min/mg]	EC50 [16] [nM]	CC50 at 72 h [17] [nM]	also measured
C[C@H](Cn1cnc2c(N)ncnc21)OCP(=O)(O)O [TENOFOVIR ANHYDROUS]	36	5000	–	–	–	–	–	–	–	–	–	–	–	–
CC(C)OC(=O)[C@H](C)N[P@](=O)(CO[C@H](C)Cn1cnc2c(N)ncnc21)Oc1ccc(C[C@H](NC(=O)OCc2ccccc2)C(=O)OC2CCCC2)cc1	143000	–	0.07	10000	53.5 (≈ 41 µg/mL)	9.63	75	0.01	0.19	73.7	–	–	–	Stability [6]: Unstable; Stability [7]: Unstable; Stability [8]: Stable; Drug metabolism [12]: Metabolite_Detected
CC(C)OC(=O)[C@H](C)N[P@](=O)(CO[C@H](C)Cn1cnc2c(N)ncnc21)Oc1ccc(C[C@H](NC(=O)OCc2ccccc2)C(=O)CC2CCCC2)cc1	1.53e+06	–	0.006	9200	–	–	88	0.04	102.36	148.09	39.7	2.8	> 50000	–
CC(C)OC(=O)[C@H](C)N[P@](=O)(CO[C@H](C)Cn1cnc2c(N)ncnc21)Oc1ccc(C[C@H](NC(=O)CCc2ccccc2)C(=O)OC2CCCC2)cc1	880000	–	0.01	8800	–	–	76	0.01	0.37	64.26	26	4.4	> 50000	–
CC(C)OC(=O)[C@H](C)N[P@](=O)(CO[C@H](C)Cn1cnc2c(N)ncnc21)Oc1ccccc1.CC(C)OC(=O)[C@H](C)N[P@](=O)(CO[C@H](C)Cn1cnc2c(N)ncnc21)Oc1ccccc1.O=C(O)/C=C/C(=O)O [TENOFOVIR ALAFENAMIDE FUMARATE]	5470	5	6.4	35000	> 1000	3.45	44	70	0.3	21.19	25.8	5.3	> 50000	–
CC(C)OC(=O)OCOP(=O)(CO[C@H](C)Cn1cnc2c(N)ncnc21)OCOC(=O)OC(C)C [TENOFOVIR DISOPROXIL FUMARATE]	656	50	–	–	–	–	–	–	–	–	–	–	–	–
CC(C)OC(=O)[C@H](C)N[P@](=O)(CO[C@H](C)Cn1cnc2c(N)ncnc21)Oc1ccc(C[C@H](NC(=O)OCc2ccccc2)C(=O)OC2CCCC2)cc1.Cl	–	–	–	–	210	–	–	–	–	–	–	–	–	–
CC(C)OC(=O)[C@H](C)N[P@@](=O)(CO[C@H](C)Cn1cnc2c(N)ncnc21)Oc1ccc(C[C@H](NCCCc2ccccc2)C(=O)CC2CCCC2)cc1	–	–	9.6	7300	–	–	–	–	266.22	50.12	10.2	–	–	Drug metabolism [18]: Metabolite_Detected; Drug metabolism [19]: Metabolite_Detected; Drug metabolism [20]: Metabolite_Detected; Drug metabolism [21]: Metabolite_Detected; Drug metabolism [22]: Metabolite_Detected
CC(C)OC(=O)[C@H](C)N[P@@](=O)(CO[C@H](C)Cn1cnc2c(N)ncnc21)Oc1ccc(C[C@H](NC(=O)OCc2ccccc2)C(=O)OC2CCCC2)cc1	–	–	16	17000	–	4.62	56	0.01	0.22	20.25	35.9	–	–	–
CC(C)OC(=O)[C@H](C)N[P@](=O)(CO[C@H](C)Cn1cnc2c(N)ncnc21)Oc1ccc(C[C@H](NC(=O)OCc2ccccc2)C(=O)OC2CCCC2)cc1.O=C(O)/C=C/C(=O)O	–	–	–	–	104	–	–	–	–	–	–	–	–	–
